Where “and” joins values, the source holds several entries; their conditions need not be identical. Equal values may be shown once.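 Interpolation was linear, between the two tested concentrations surrounding the appropriate level; five concentrations were tested over 48 hours in 96-well plates. GI50: concentration for 50% inhibition of growth. At the TGI there is no net growth.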
Experiments:
Experiment in all cases: NCI tumour cell line growth inhibition, 48 h
DU-145 prostate = tested on: DU-145 prostate
HCT-116 colon = tested on: HCT-116 colon
K-562 leukemia = tested on: K-562 leukemia
MCF7 breast = tested on: MCF7 breast
NCI-H23 lung = tested on: NCI-H23 lung
NCI-H460 lung = tested on: NCI-H460 lung
NCI-H522 lung = tested on: NCI-H522 lung
PC-3 prostate = tested on: PC-3 prostate
SK-MEL-2 melanoma = tested on: SK-MEL-2 melanoma
SK-OV-3 ovarian = tested on: SK-OV-3 ovarian

| SMILES | GI50 (DU-145 prostate) | TGI (DU-145 prostate) | GI50 (HCT-116 colon) | TGI (HCT-116 colon) | GI50 (K-562 leukemia) | TGI (K-562 leukemia) | GI50 (MCF7 breast) | TGI (MCF7 breast) | GI50 (NCI-H23 lung) | TGI (NCI-H23 lung) | GI50 (NCI-H460 lung) | GI50 (NCI-H522 lung) | TGI (NCI-H522 lung) | GI50 (PC-3 prostate) | TGI (PC-3 prostate) | GI50 (SK-MEL-2 melanoma) | TGI (SK-MEL-2 melanoma) | GI50 (SK-OV-3 ovarian) | TGI (SK-OV-3 ovarian) | TGI (NCI-H460 lung) |
| --- | --- | --- | --- | --- | --- | --- | --- | --- | --- | --- | --- | --- | --- | --- | --- | --- | --- | --- | --- | --- |
| C#CC1(O)C(COP(=O)(O)OCC(COP(=O)(O)OCC2OC(n3cc(F)c(=O)[nH]c3=O)CC2O)OCCCCCCCCCCCCCCCCCC)OC(n2ccc(N)nc2=O)C1O (stereo not given) | 0.106 µM | > 71.9 µM | < 0.01 µM | > 40.7 µM | 0.338 µM | > 100 µM | < 0.01 µM | > 32 µM | 0.28 µM | 8.72 µM | < 0.01 µM | 0.712 µM | > 34.8 µM | 0.0397 µM | 6.72 µM | 0.481 µM | 6.24 µM | 10.1 µM | 76.3 µM |  |
| CN(C)Cc1cc(C(F)(F)F)ccc1C(O)(c1ccccc1)c1ccccc1 |  | > 100 µM |  | 26.8 µM |  | 24.4 µM |  | 27.4 µM |  | 79.3 µM |  |  | 35 µM |  | 36 µM |  | 41 µM |  | 56.5 µM | 28.1 µM |
| N[C@H](C(=O)O)[C@@H]1CC(Cl)=NO1 | 99.6 µM | > 1000 µM | 3.71 µM | > 1000 µM | 7.16 µM | > 944 µM | 4.77 µM | 325 µM | 38.2 µM | > 1000 µM | 3.22 µM |  | 271 µM | 11.5 µM | > 1000 µM | 27.1 µM | 355 µM | 34.5 µM | > 584 µM | > 1000 µM |
| C=CC(=O)N1CCC(Oc2cc3c(Nc4ccc(Cl)c(Cl)c4F)ncnc3cc2OC)CC1 |  | 15.4 µM and > 10 µM | 5.28 µM and 3.72 µM | 18.9 µM and > 10 µM | 3.98 µM and 2.68 µM | > 100 µM | 2.05 µM and 1.42 µM | 21.7 µM and > 10 µM | 4.52 µM and 3.18 µM | 21.7 µM and > 10 µM | 11.1 µM and 5.88 µM | < 0.01 µM and 0.00141 µM | 4.19 µM and 0.782 µM | 7.66 µM and 2.95 µM | 24.5 µM and > 10 µM | 6.15 µM and 1.95 µM | 27 µM and 6.41 µM | < 0.001 µM |  | 33.2 µM and > 10 µM |
| O=C1C=CC(=O)C2C1C1(Cl)C(Cl)=C(Cl)C2(Cl)C1(Cl)Cl (stereo not given) | 3.73 µM | 15.6 µM | 3.51 µM | 14.6 µM | 2.58 µM | 10.8 µM | 8.55 µM | 31.1 µM | 4.85 µM | 26.3 µM | 3.06 µM | 3.73 µM | 13.1 µM | 2.73 µM | 20 µM | 3.18 µM | 8.99 µM | 7.85 µM | 21.1 µM | 9.04 µM |
| Cn1c(Cl)c(/C=C2/C(=O)Nc3ccccc32)c2ccccc21 | 1.4 µM | 15.8 µM | 0.306 µM | 12.3 µM | 0.0601 µM | > 100 µM | 0.198 µM |  | 1.02 µM | 8.89 µM | 0.727 µM | 2.39 µM | 22.4 µM | 0.859 µM | > 33.7 µM | 2.32 µM | 26.1 µM | 0.732 µM | 10.5 µM | > 32.2 µM |
| NCCCNCCS |  | > 100 µM |  | > 100 µM |  | > 100 µM |  | > 100 µM |  | > 100 µM |  |  | > 100 µM |  | > 100 µM |  | > 100 µM |  | > 100 µM | > 100 µM |

Reference: PubChem BioAssay (NCI)
